# Measured values as given in PubChem BioAssay (NCI).
#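 Protocol summary: plate cells (96-well), add compound at 5 concentrations, incubate 48 h, interpolate endpoints linearly. Here, GI50 denotes the concentration required for 50% inhibition of growth. The concentration for full growth arrest is given as TGI.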
# What was measured:
# Assay in all cases: NCI tumour cell line growth inhibition, 48 h
# [1] = tested on: DU-145 prostate
# [2] = tested on: OVCAR-3 ovarian
# [3] = tested on: MDA-MB-231 breast
# [4] = tested on: SF-539 CNS
# [5] = tested on: PC-3 prostate
# [6] = tested on: T-47D breast
# [7] = tested on: BT-549 breast
# [8] = tested on: SR leukemia
# [9] = tested on: A549 NSCLC
# [10] = tested on: MCF7 breast
# [11] = tested on: HOP-62 NSCLC
# [12] = tested on: M14 melanoma
# [13] = tested on: RPMI-8226 leukemia
# [14] = tested on: SF-295 CNS
# [15] = tested on: OVCAR-8 ovarian
# [16] = tested on: NCI-H522 lung
# [17] = tested on: A498 renal
# [18] = tested on: OVCAR-4 ovarian
# [19] = tested on: MALME-3M melanoma
# [20] = tested on: SW-620 colon
# [21] = tested on: ACHN renal
# [22] = tested on: SK-MEL-28 melanoma
# [23] = tested on: HCT-15 colon
# [24] = tested on: UACC-257 melanoma
# [25] = tested on: 786-0 renal
# [26] = tested on: HOP-92 NSCLC
# [27] = tested on: U251 CNS
# [28] = tested on: MDA-MB-435
# [29] = tested on: SNB-19 CNS
# [30] = tested on: CAKI-1 renal
# [31] = tested on: HS 578T breast
# [32] = tested on: NCI/ADR-RES ovarian
# [33] = tested on: HL-60(TB) leukemia
# [34] = tested on: UO-31 renal
# [35] = tested on: RXF 393 renal
# [36] = tested on: HCC-2998 colon
# [37] = tested on: SN12C renal
# [38] = tested on: HCT-116 colon
# [39] = tested on: NCI-H460 lung
# [40] = tested on: SK-MEL-2 melanoma
# [41] = tested on: OVCAR-5 ovarian
# [42] = tested on: K-562 leukemia
# [43] = tested on: IGROV1 ovarian
# [44] = tested on: UACC-62 melanoma
# [45] = tested on: NCI-H226 lung
# [46] = tested on: TK-10 renal
# [47] = tested on: KM12 colon
# [48] = tested on: HT29 colon
# [49] = tested on: CCRF-CEM leukemia
# [50] = tested on: MOLT-4 leukemia
# [51] = tested on: SNB-75 CNS
# [52] = tested on: SK-MEL-5 melanoma
# [53] = tested on: LOX IMVI melanoma
# [54] = tested on: SF-268 CNS
# [55] = tested on: SK-OV-3 ovarian
# [56] = tested on: EKVX NSCLC
# [57] = tested on: COLO 205 colon
# [58] = tested on: MDA-MB-468 breast
# [59] = tested on: NCI-H23 lung
smiles,measurement,setting,value
COc1ccc(CCC2c3c(cc4c(c3OC)OCO4)CCN2C)cc1 (stereo unspecified),GI50,[1],20.1 µM
same,TGI,[1],86.2 µM
same,GI50,[2],10.9 µM
same,TGI,[2],29.3 µM
same,GI50,[3],9.13 µM
same,TGI,[3],22.6 µM
same,GI50,[4],4.91 µM
same,TGI,[4],16.8 µM
same,GI50,[5],9.52 µM
same,TGI,[5],35.1 µM
same,GI50,[6],6.92 µM
same,TGI,[6],29.6 µM
same,GI50,[7],7.68 µM
same,TGI,[7],20.1 µM
same,GI50,[8],3.94 µM
same,TGI,[8],24 µM
same,GI50,[9],17 µM
same,TGI,[9],> 100 µM
same,GI50,[10],10.4 µM
same,TGI,[10],24.3 µM
same,GI50,[11],7.41 µM
same,TGI,[11],46.3 µM
same,GI50,[12],7.17 µM
same,TGI,[12],23.2 µM
same,GI50,[13],4.05 µM
same,TGI,[13],27.4 µM
same,GI50,[14],3.5 µM
same,TGI,[14],17.2 µM
same,GI50,[15],13.1 µM
same,TGI,[15],30.5 µM
same,GI50,[16],12.1 µM
same,TGI,[16],27.1 µM
same,GI50,[17],18 µM
same,TGI,[17],64.6 µM
same,GI50,[18],17.2 µM
same,TGI,[18],99.2 µM
same,GI50,[19],14.2 µM
same,TGI,[19],27.5 µM
same,GI50,[20],3.93 µM
same,TGI,[20],16.8 µM
same,GI50,[21],8.95 µM
same,TGI,[21],45 µM
same,GI50,[22],10.2 µM
same,TGI,[22],22.5 µM
same,GI50,[23],9.8 µM
same,TGI,[23],34.8 µM
same,GI50,[24],13.4 µM
same,TGI,[24],28.2 µM
same,GI50,[25],9.15 µM
same,TGI,[25],24 µM
same,GI50,[26],5.16 µM
same,TGI,[26],23.4 µM
same,GI50,[27],13.6 µM
same,TGI,[27],46.5 µM
same,GI50,[28],3.78 µM
same,TGI,[28],17.1 µM
same,GI50,[29],15 µM
same,TGI,[29],> 100 µM
same,GI50,[30],9.84 µM
same,TGI,[30],38.8 µM
same,GI50,[31],10.4 µM
same,TGI,[31],41.8 µM
same,GI50,[32],9.23 µM
same,TGI,[32],26.2 µM
same,GI50,[33],3.01 µM
same,TGI,[33],18 µM
same,GI50,[34],8.73 µM
same,TGI,[34],54.1 µM
same,GI50,[35],6.99 µM
same,TGI,[35],30.6 µM
same,GI50,[36],10.7 µM
same,TGI,[36],25.7 µM
same,GI50,[37],7.05 µM
same,TGI,[37],37.4 µM
same,GI50,[38],3.35 µM
same,TGI,[38],13.8 µM
same,GI50,[39],4.76 µM
same,TGI,[39],19.1 µM
same,GI50,[40],14.6 µM
same,TGI,[40],36.7 µM
same,GI50,[41],5.98 µM
same,TGI,[41],28.8 µM
same,GI50,[42],3.94 µM
same,TGI,[42],24.6 µM
same,GI50,[43],5.72 µM
same,TGI,[43],22.1 µM
same,GI50,[44],10.6 µM
same,TGI,[44],23.2 µM
same,GI50,[45],7.04 µM
same,TGI,[45],25.6 µM
same,GI50,[46],10.6 µM
same,TGI,[46],31.8 µM
same,GI50,[47],12.6 µM
same,TGI,[47],33.2 µM
same,GI50,[48],3.63 µM
same,TGI,[48],20.9 µM
same,GI50,[49],11.2 µM
same,TGI,[49],46.7 µM
same,GI50,[50],6.39 µM
same,TGI,[50],32.8 µM
same,GI50,[51],13.5 µM
same,TGI,[51],70.5 µM
same,GI50,[52],10.4 µM
same,TGI,[52],22.2 µM
same,GI50,[53],3.14 µM
same,TGI,[53],12.6 µM
same,GI50,[54],14.3 µM
same,TGI,[54],> 100 µM
same,GI50,[55],17.3 µM
same,TGI,[55],43.3 µM
same,GI50,[56],16.1 µM
same,TGI,[56],67.7 µM
same,GI50,[57],5.99 µM
same,TGI,[57],21 µM
same,GI50,[58],6.81 µM
same,TGI,[58],21.6 µM
same,GI50,[59],6.56 µM
same,TGI,[59],31.7 µM
CC1(C)CC[C@]2(C(=O)N3CCOCC3)CC[C@]3(C)C(=CC[C@@H]4[C@@]5(C)CC[C@H](NCO)C(C)(C)[C@@H]5CC[C@]43C)[C@H]2C1,GI50,[1],1.38 µM
same,TGI,[1],5.01 µM
same,GI50,[2],0.961 µM
same,TGI,[2],3.43 µM
same,GI50,[3],1.83 µM
same,TGI,[3],5.89 µM
same,GI50,[4],1.12 µM
same,TGI,[4],4.29 µM
same,GI50,[5],4.6 µM
same,TGI,[5],10.6 µM
same,GI50,[6],5.33 µM
same,TGI,[6],15.6 µM
same,GI50,[7],6.38 µM
same,TGI,[7],12.9 µM
same,GI50,[8],0.682 µM
same,TGI,[8],2.14 µM
same,GI50,[9],1.58 µM
same,TGI,[9],7.01 µM
same,GI50,[10],0.73 µM
same,TGI,[10],2.06 µM
same,GI50,[11],8.18 µM
same,TGI,[11],18.6 µM
same,GI50,[12],4.11 µM
same,TGI,[12],9.71 µM
same,GI50,[13],1.42 µM
same,TGI,[13],7.17 µM
same,GI50,[14],1.86 µM
same,TGI,[14],6.7 µM
same,GI50,[15],1.52 µM
same,TGI,[15],6.3 µM
same,GI50,[16],6.27 µM
same,TGI,[16],13.8 µM
same,GI50,[17],5.59 µM
same,TGI,[17],10.9 µM
same,GI50,[18],2.5 µM
same,TGI,[18],7.62 µM
same,GI50,[19],5.2 µM
same,TGI,[19],9.97 µM
same,GI50,[20],0.552 µM
same,TGI,[20],1.06 µM
same,GI50,[21],1.72 µM
same,TGI,[21],6.11 µM
same,GI50,[22],5.16 µM
same,TGI,[22],9.94 µM
same,GI50,[23],0.715 µM
same,TGI,[23],1.76 µM
same,GI50,[24],5.65 µM
same,TGI,[24],10.7 µM
same,GI50,[25],0.596 µM
same,TGI,[25],1.31 µM
same,GI50,[26],5.25 µM
same,TGI,[26],11.3 µM
same,GI50,[27],4.14 µM
same,TGI,[27],9.49 µM
same,GI50,[28],0.998 µM
same,TGI,[28],5.1 µM
same,GI50,[29],5.71 µM
same,TGI,[29],11.3 µM
same,GI50,[30],0.915 µM
same,TGI,[30],2.98 µM
same,GI50,[31],5.22 µM
same,TGI,[31],12.5 µM
same,GI50,[32],1.99 µM
same,TGI,[32],7.09 µM
same,GI50,[33],0.484 µM
same,TGI,[33],1.22 µM
same,GI50,[34],4.62 µM
same,TGI,[34],9.34 µM
same,GI50,[35],0.886 µM
same,TGI,[35],2.69 µM
same,GI50,[36],0.836 µM
same,TGI,[36],2.31 µM
same,GI50,[37],2.36 µM
same,TGI,[37],6.94 µM
same,GI50,[38],0.696 µM
same,TGI,[38],1.58 µM
same,GI50,[39],1.02 µM
same,TGI,[39],3.29 µM
same,GI50,[40],5.95 µM
same,TGI,[40],11.4 µM
same,GI50,[41],4.47 µM
same,TGI,[41],9.1 µM
same,GI50,[42],0.811 µM
same,TGI,[42],33.8 µM
same,GI50,[43],4.66 µM
same,TGI,[43],9.78 µM
same,GI50,[44],5.86 µM
same,TGI,[44],10.7 µM
same,GI50,[45],6.61 µM
same,TGI,[45],13.6 µM
same,GI50,[46],7.05 µM
same,TGI,[46],13.5 µM
same,GI50,[47],1.14 µM
same,TGI,[47],4.26 µM
same,GI50,[48],1.96 µM
same,TGI,[48],18.6 µM
same,GI50,[49],1.04 µM
same,TGI,[49],3.23 µM
same,GI50,[50],0.767 µM
same,TGI,[50],2.68 µM
same,GI50,[51],4.39 µM
same,TGI,[51],9.51 µM
same,GI50,[52],5.65 µM
same,TGI,[52],11 µM
same,GI50,[53],0.576 µM
same,TGI,[53],1.06 µM
same,GI50,[54],4.78 µM
same,TGI,[54],10.4 µM
same,GI50,[55],6.81 µM
same,TGI,[55],13.3 µM
same,GI50,[56],4.57 µM
same,TGI,[56],10 µM
same,GI50,[57],0.795 µM
same,TGI,[57],1.99 µM
same,GI50,[58],0.647 µM
same,TGI,[58],1.4 µM
same,GI50,[59],3.74 µM
same,TGI,[59],8.72 µM
